Reference: US20190351012A1, “TARGETING OF INTERFERON-STIMULATED GENE EXPRESSION TO TREAT INTERFERONOPATHIES” (New York University, priority 2018, published 2019)

Columns and labels:
[1] = system: H3K4me3 at ISG54, ISG56 and 6-16 promoters; test: ChIP for H3K4me3 at ISG promoters in 2fTGH cells; assay type: cell-based, human; conditions: co-treatment with IFN-α
Description: FIG. 3. […] (A) 2fTGH cells were either left untreated or treated with IFN-α in the absence or presence of TSA for the indicated time (min). ChIP assays were performed with antibodies against Pol II and recovered ISG56 promoter sequences were quantified by real-time PCR relative to input and represented as fold induction relative to untreated cells. (B) As in A, except that antibodies against phosphorylated Pol II at serine-5 in the CTD were used for immunoprecipitation, following 60 min IFN-α treatments. Recovered ISG54, ISG56 and ISG15 promoter sequences were quantified by real-time PCR relative to input and represented as fold induction relative to untreated cells. (C) As in A, except that cells were treated with IFN-α for 60 min and proximal, middle and distal fragments along the ISG54 gene (left panel) and ISG56 gene (right panel) were assayed. (D) As in A, except that antibodies against trimethylated lysine-4 on histone H3 were used. Promoter regions of ISG54, ISG56 and 6-16 genes were quantified by real-time PCR and reported as fold over the signal detected with a non-specific antibody.
Chromatin immunoprecipitation was performed as follows. […] Immunoprecipitated DNA sequences were recovered by alcohol precipitation and quantified by real-time PCR compared with input genomic DNA. […]

[2] = system: ISG54 promoter nucleosomes in FS2 human diploid fibroblasts; test: MNase-PCR nucleosome mapping of the ISG54 promoter in FS2 fibroblasts; assay type: cell-based
Excerpt: FIG. 2. […] (A) Nuclear extracts from HEK293T cells expressing activated recombinant ISGF3 (STAT1, STAT2, IRF9 and JAK1) or transfected with vector (Ctl) were programmed with G6TI-CAT (G6TI) or p107 (ISG54) templates. Radiolabeled RNA transcripts were resolved by polyacrylamide-urea gel electrophoresis. Arrow and arrowhead indicate position of the transcripts from G6TI-CAT and p107, respectively. (B) HeLa cells were either left untreated or treated with IFN-α in the absence or presence of TSA (TSA in vivo) before nuclei were isolated for run-on transcription. Where indicated, TSA was added to the elongation reaction in vitro (TSA in vitro). Specific signals from γ-actin, ISG15, ISG56, 6-16, 9-27, IRF9 and GBP transcription were quantified following filter hybridization and normalized to the signal for GAPDH, arbitrarily set to 100. Representative data from three independent experiments are shown. FS2 human diploid fibroblasts were starved for 72 h before being treated with IFN-α for 7.5 h in the absence or presence of TSA. Mononucleosomal DNA fraction was purified from MNase-digested nuclei and analyzed for nucleosome positions by PCR quantitation of protected fragments. All samples were quantified by real-time PCR, except the—53—+1 ISG54 fragment, which was quantified by gel electrophoresis (C). […]

nuclease sensitivity of segments around TATA box and initiation site ([2]; MNase): minimally affected | IFN-induced increase of nuclease sensitivity of −92 to −33 ISRE segment ([2]; co-treatment with IFN): not prevented
SMILES: CC(/C=C/C(=O)NO)=C\[C@@H](C)C(=O)c1ccc(N(C)C)cc1 [TSA, Trichostatin A]
level of H3K4me3 on ISG promoters [1]: neither IFN stimulation nor TSA co-treatment significantly affected
